Values quoted from earlier work in patent US12324430B2, “Topical antiseptic system” (INFECTION CONTAINMENT COMPANY, LLC, priority 2015, dated 2025).

Substance | water solubility (in words)
zinc glycerate | moderately water soluble
zinc picolinate | moderately water soluble
